Laboratory results from patent publication US6750228B1, “Aromatic sulfone hydroxamic acid metalloprotease inhibitor” (priority 1997, dated 2004).
Where a name gives a salt, the structure may show the parent alone. Read-outs that look alike come from different tables or passages of the source.

What was measured:
Assay in all cases: biochemical
[1] = target: T1, MMP-1 (Homo sapiens, UniProt P03956); settings: read-out: MMP-1 IC50
T1 construct: made in house; host or cells: transfected HT-1080 cells (provided by Dr. Harold Welgus, Washington University)
T1 sequence (P03956 100-469): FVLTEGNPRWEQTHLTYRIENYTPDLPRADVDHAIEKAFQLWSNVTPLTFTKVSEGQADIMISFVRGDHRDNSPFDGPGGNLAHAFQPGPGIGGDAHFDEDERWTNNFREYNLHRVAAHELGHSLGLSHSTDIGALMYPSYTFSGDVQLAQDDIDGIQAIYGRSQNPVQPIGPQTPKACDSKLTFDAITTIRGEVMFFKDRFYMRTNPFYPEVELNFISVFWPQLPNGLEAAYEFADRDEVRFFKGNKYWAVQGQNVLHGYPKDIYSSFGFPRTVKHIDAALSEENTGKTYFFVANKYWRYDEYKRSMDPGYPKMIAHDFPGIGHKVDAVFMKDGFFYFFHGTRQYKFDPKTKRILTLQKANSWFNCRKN
Procedure, shortened: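 Substrate MCA-PLGL-Dpa-AR-NH2 at 4 μM final; pH 7.5 Tris/NaCl/CaCl2 buffer with 0.05% polyethyleneglycol lauryl ether, 1% DMSO, room temperature. MMP-1 was expressed in transfected HT-1080 cells and APMA-activated.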

[2] = target: T2, MMP-13 (Homo sapiens, UniProt P45452)
T2 construct: made in house; host or cells: baculovirus / insect cells
Procedure, shortened: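 APMA- or trypsin-activated enzymes were preincubated with inhibitor for 5 min at room temperature, then the fluorogenic substrate MCA-Pro-Leu-Gly-Leu-Dpa-Ala-Arg-NH2 was added to a final 4 μM.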

[3] = target: T3, MMP-2 (Homo sapiens, UniProt P08253)
T3 construct: made in house; provided by Dr. Gregory Goldberg, Washington University
T3 sequence (P08253 110-660): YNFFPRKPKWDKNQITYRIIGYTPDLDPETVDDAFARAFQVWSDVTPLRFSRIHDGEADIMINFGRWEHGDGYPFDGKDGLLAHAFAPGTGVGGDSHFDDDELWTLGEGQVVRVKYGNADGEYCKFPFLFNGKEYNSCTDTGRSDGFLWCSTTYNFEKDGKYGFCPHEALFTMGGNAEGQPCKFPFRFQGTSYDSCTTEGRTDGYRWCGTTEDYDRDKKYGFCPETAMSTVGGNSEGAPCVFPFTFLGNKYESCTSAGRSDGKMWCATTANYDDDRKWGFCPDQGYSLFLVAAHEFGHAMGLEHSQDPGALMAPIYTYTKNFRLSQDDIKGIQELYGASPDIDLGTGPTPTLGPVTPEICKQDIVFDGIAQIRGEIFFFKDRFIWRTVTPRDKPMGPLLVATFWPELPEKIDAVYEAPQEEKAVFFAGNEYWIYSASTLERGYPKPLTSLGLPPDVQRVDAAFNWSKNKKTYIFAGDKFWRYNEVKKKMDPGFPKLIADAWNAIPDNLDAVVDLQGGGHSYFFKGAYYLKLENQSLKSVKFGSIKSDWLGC
Procedure, shortened: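 Assay buffer 100 mM Tris-HCl, 100 mM NaCl, 10 mM CaCl2, pH 7.5. Activated MMP + inhibitor, 5 min RT; then methoxycoumarin peptide substrate, 4 μM final. Readout fluorescence; IC50 calculated.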

[4] = recombinant human MMP-1, MCA peptide substrate 4 μM, pH 7.5, room temperature
[5] = recombinant human MMP-13, MCA peptide substrate 4 μM, pH 7.5, room temperature, read-out: MMP-13 IC50
[6] = recombinant human MMP-2, MCA peptide substrate 4 μM, pH 7.5, room temperature, read-out: MMP-2 IC50

IC50 [1, 4]	IC50 [2, 5]	IC50 [3, 6]	Compound	IC50 [1]	IC50 ([2]; read-out: MMP-13 IC50)	IC50 ([3]; read-out: MMP-2 IC50)	IC50 ([2]; MMP-13 IC50 (nM))	IC50 ([3]; MMP-2 IC50 (nM))
> 10000 nM	22 nM	4000 nM	CC(C)CN(C)C(=O)C1CCN(c2ccc(S(=O)(=O)C3(C(=O)NO)CCOCC3)cc2)CC1 [Example 58]	–	–	–	–	–
> 10000 nM	270 nM	290 nM	O=C(NO)C1(S(=O)(=O)c2ccc(Oc3ccncc3)cc2)CCSCC1 [Example 151]	–	–	–	–	–
> 10000 nM	14.5 nM	21.1 nM	CC1CCN(c2ccc(S(=O)(=O)C3(C(=O)NO)CCOCC3)cc2)CC1 [Example 495]	–	–	–	–	–
> 10000 nM	2.3 nM	9 nM	O=C(NO)C1(S(=O)(=O)c2ccc(N3CCC(SCc4ccccc4)CC3)cc2)CCOCC1 [Example 707]	–	–	–	–	–
> 10000 nM	14 nM	690 nM	O=C(Nc1ccncc1)C1CCN(c2ccc(S(=O)(=O)C3(C(=O)NO)CCOCC3)cc2)CC1 [Example 62]	–	–	–	–	–
–	–	–	O=C(C1CCN(c2ccc(S(=O)(=O)C3(C(=O)NO)CCOCC3)cc2)CC1)N1CCN(c2ncccc2C(F)(F)F)CC1 [Example 33]	> 10000 nM	20 nM	4500 nM	–	–
–	–	–	CC1CC(C)CN(C(=O)C2CCN(c3ccc(S(=O)(=O)C4(C(=O)NO)CCSCC4)cc3)CC2)C1 (stereo not drawn) [Example 162]	> 10000 nM	27.8 nM	7000 nM	–	–
> 10000 nM	9 nM	40 nM	O=C(NO)C1(S(=O)(=O)c2ccc(N3CCN(c4ccccc4Cl)CC3)cc2)CCOCC1 [Example 88]	–	–	–	–	–
> 10000 nM	650 nM	3300 nM	Cc1ccccc1N1CC2CC1CN2c1ccc(S(=O)(=O)C2(C(=O)NO)CCOCC2)cc1 (stereo not drawn) [Example 494]	–	–	–	–	–
> 10000 nM	70 nM	235 nM	CCOCC1CCCN(c2ccc(S(=O)(=O)C3(C(=O)NO)CCOCC3)cc2)C1 (stereo not drawn) [Example 563]	–	–	–	–	–
> 10000 nM	20 nM	2500 nM	O=C(NO)C1(S(=O)(=O)c2ccc(N3CCC(OCc4ccc(COCC5CCCCC5)cc4)CC3)cc2)CCOCC1 [Example 604]	–	–	–	–	–
> 10000 nM	0.7 nM	0.3 nM	O=C(CCCCN1CCCCC1)N1CCC(C(=O)NO)(S(=O)(=O)c2ccc(Oc3ccc(C(F)(F)F)cc3)cc2)CC1 [Example 334]	–	–	–	–	–
> 10000 nM	1.6 nM	< 0.1 nM	O=C(NO)C1(S(=O)(=O)c2ccc(Oc3ccc(OC(F)(F)F)cc3)cc2)CCN(S(=O)(=O)c2cccc(C(F)(F)F)c2)CC1 [Example 196]	–	–	–	–	–
> 10000 nM	12.8 nM	50 nM	Nc1ccc(OC2CCN(c3ccc(S(=O)(=O)C4(C(=O)NO)CCOCC4)cc3)CC2)cc1 [Example 553]	–	–	–	–	–
> 10000 nM	34.5 nM	1600 nM	COCCN1CCC(C(=O)NO)(S(=O)(=O)c2ccc(N3CCC(C(=O)NCc4ccccc4)CC3)cc2)CC1 [Example 247, N-Hydroxy-1-(2-methoxyethyl)-4-[[4-[4-[[(phenylmethyl)amino]carbonyl]-1-piperidinyl]phenyl]-sulfonyl]-4-piperidinecarboxamide, Monohydrochloride]	–	–	–	–	–
> 10000 nM	15.8 nM	2300 nM	CCC(C)CCOCc1ccc(COC2CCN(c3ccc(S(=O)(=O)C4(C(=O)NO)CCOCC4)cc3)CC2)cc1 (stereo not drawn) [Example 603]	–	–	–	–	–
> 10000 nM	5 nM	50 nM	COc1ccc(S(=O)(=O)N2CCN(c3ccc(S(=O)(=O)C4(C(=O)NO)CCOCC4)cc3)CC2)cc1 [Example 678]	–	–	–	–	–
> 10000 nM	9 nM	1300 nM	CCC(C)COCc1ccc(COC2CCN(c3ccc(S(=O)(=O)C4(C(=O)NO)CCOCC4)cc3)CC2)cc1 (stereo not drawn) [Example 601]	–	–	–	–	–
> 10000 nM	290 nM	> 10000 nM	O=C(NO)C1(S(=O)(=O)c2ccc(N3CCC(Oc4c(Cl)cc(C(F)(F)F)cc4Cl)CC3)cc2)CCOCC1 [Example 570]	–	–	–	–	–
> 10000 nM	0.9 nM	19.3 nM	O=C(NO)C1(S(=O)(=O)c2ccc(N3CCC(CCOCc4ccccc4)CC3)cc2)CCOCC1 [Example 499]	–	–	–	–	–
> 10000 nM	1.1 nM	41.8 nM	N#Cc1ccc(COC2CCN(c3ccc(S(=O)(=O)C4(C(=O)NO)CCOCC4)cc3)CC2)cc1 [Example 180]	–	–	–	–	–
> 10000 nM	670 nM	700 nM	CCCCCN(C)C1CCN(c2ccc(S(=O)(=O)C3(C(=O)NO)CCOCC3)cc2)CC1 [Example 597]	–	–	–	–	–
> 10000 nM	50 nM	130 nM	O=C(NO)C1(S(=O)(=O)c2ccc(N3CCCCC3)cc2)CCOCC1 [Example 209]	–	–	–	–	–
> 10000 nM	107 nM	2200 nM	O=C(NO)C1(S(=O)(=O)c2ccc(N3CCC(OCc4ccncc4)CC3)cc2)CCOCC1 [Example 577]	–	–	–	–	–

Compound	IC50 [1, 4]	IC50 [2, 5]	IC50 [3, 6]	IC50 [1]	IC50 ([2]; read-out: MMP-13 IC50)	IC50 ([3]; read-out: MMP-2 IC50)	IC50 ([2]; MMP-13 IC50 (nM))	IC50 ([3]; MMP-2 IC50 (nM))
O=C(CCCCNCc1ccccn1)N1CCC(C(=O)NO)(S(=O)(=O)c2ccc(Oc3ccc(C(F)(F)F)cc3)cc2)CC1 [Example 336]	> 10000 nM	1 nM	< 0.1 nM	–	–	–	–	–
O=C(c1ccc(F)cc1)C1CCN(c2ccc(S(=O)(=O)C3(C(=O)NO)CCOCC3)cc2)CC1 [Example 654]	> 10000 nM	3.2 nM	35 nM	–	–	–	–	–
CCCCOC1CCN(c2ccc(S(=O)(=O)C3(C(=O)NO)CCNCC3)cc2)CC1 [Example 443]	> 10000 nM	90 nM	2200 nM	–	–	–	–	–
CS(=O)(=O)N1CCCN(C2CCN(c3ccc(S(=O)(=O)C4(C(=O)NO)CCOCC4)cc3)CC2)CC1 [Example 815]	> 10000 nM	140 nM	1400 nM	–	–	–	–	–
COCCN1CCC(C(=O)NO)(S(=O)(=O)c2ccc(N3CCC(OCc4ccc(F)cc4)CC3)cc2)CC1 [Example 448]	> 10000 nM	2.4 nM	540 nM	–	–	–	–	–
CC(C)(Cl)CC(=O)C1CCN(c2ccc(S(=O)(=O)C3(C(=O)NO)CCOCC3)cc2)CC1 [Example 760]	> 10000 nM	6 nM	25.4 nM	–	–	–	–	–
Tetrahydro-N-hydroxy-4-[[4-(pentaflourooxy)phenyl]sulfonyl]-2H-thiopyran-4-carboxamide [Example 224]	4500 nM	< 0.1 nM	< 0.1 nM	–	–	–	–	–
COc1cccc(NC(=O)N2CCC(C(=O)NO)(S(=O)(=O)c3ccc(Oc4ccc(OC(F)(F)F)cc4)cc3)CC2)c1 [Example 353]	> 10000 nM	0.3 nM	< 0.1 nM	–	–	–	–	–
COc1ccc(C2CCN(c3ccc(S(=O)(=O)C4(C(=O)NO)CCOCC4)cc3)CC2)c(C)c1 [Example 823]	> 10000 nM	–	–	–	–	–	7 nM	505 nM
CCOC(=O)CN1CCN(CC(=O)N2CCC(C(=O)NO)(S(=O)(=O)c3ccc(N4CCC(C(=O)N5CC(C)CC(C)C5)CC4)cc3)CC2)CC1 (stereo not drawn) [Example 305]	> 10000 nM	28.6 nM	> 10000 nM	–	–	–	–	–
O=C(NO)C1(S(=O)(=O)c2ccc(N3CCC(OCc4ccc(COCC(F)(F)C(F)(F)C(F)(F)F)cc4)CC3)cc2)CCOCC1 [Example 609]	> 10000 nM	30.6 nM	2800 nM	–	–	–	–	–
O=C(NO)C1(S(=O)(=O)c2ccc(N3CCC([S+]([O-])c4ccccc4)CC3)cc2)CCN(C2CC2)CC1 (stereo not drawn) [Example 459]	> 10000 nM	136 nM	3100 nM	–	–	–	–	–
CC1CC(C)CN(C(=O)C2CCN(c3ccc(S(=O)(=O)C4(C(=O)NO)CCN(C(=O)CN5CCOCC5)CC4)cc3)CC2)C1 (stereo not drawn) [Example 283]	> 10000 nM	13.8 nM	> 10000 nM	–	–	–	–	–
O=C(Nc1ccc(Cl)c(Cl)c1)N1CCC(C(=O)NO)(S(=O)(=O)c2ccc(Oc3ccc(OC(F)(F)F)cc3)cc2)CC1 [Example 359]	> 10000 nM	34.9 nM	12.2 nM	–	–	–	–	–
COCCN1CCC(C(=O)NO)(S(=O)(=O)c2ccc(N3CCC(OCc4ccc(Cl)cc4)CC3)cc2)CC1 [Example 445]	> 10000 nM	90 nM	1200 nM	–	–	–	–	–
